Assay results published in patent US20240383909A1, “CO-CRYSTALS” (INTRA-CELLULAR THERAPIES, INC., priority 2021, published 2024).
Values after ≈ are worked out from the molar mass of the structure shown.

Assay: Aqueous solubility of co-crystals (saturated solutions in water, liquid chromatography)
Type: physicochemical
Details: thermodynamic from solid, time point not stated, read-out: solubility for the Free Base (comparison)
Description: The aqueous solubility of the co-crystals is determined by creating saturated solutions containing individual co-crystals in water. The saturated solutions are shaken for 24 hours at room temperature. Samples are taken at two timepoints (2 hours and 24 hours) and are filtered and diluted (acetonitrile/water 1:1) before measurement with liquid chromatography.

solubility: 1 µg/mL (≈ 1.97 µM)
Structure (SMILES): CN1C(=O)c2c(nn(Cc3ccc(-c4cccc(F)n4)cc3)c2Nc2ccccc2)N2C1=N[C@@H]1CCC[C@@H]12 [Free Base, (6aR,9aS)-5,6a,7,8,9,9a-hexahydro-5-methyl-3-(phenylamino)-2-((4-(6-fluoropyridin-2-yl)phenyl)methyl)-cyclopent[4,5]imidazo[1,2-a]pyrazolo[4,3-e]pyrimidin-4(2H)-one]
